The source of these data is patent US6764826B2, “Inhibitors of C-reactive protein induced inflammation” (Board of Regents, The University of Texas System, priority 2000, dated 2004).

“Also recorded” adds a separate entry of the source.

For one experiment, the system named is MCP-1 Induction by CRP. Put plainly: Modulation of CRP effects by statin, aspirin and PPAR activators: MCP-1 secretion in HUVEC, sandwich ELISA. The format is cell-based, human. The following applies: for effect on induction of MCP-1 by CRP (in words): test substance 10 μM. Here is the method:
Experiments were performed in HUVEC. […] After 2 hours, the cells were incubated with C-reactive protein or with IL-1β 10 ng/mL for 24 hours. […] Secretion of MCP-1 and RANTES were assessed by sandwich ELISA (Colorimetric Quantikine, by R and D Systems). All determinations were performed in duplicate. Data were expressed as mean±SD of 5-6 separate experiments. Cell viability was assessed by staining with trypan blue.

Experiment [1] relates to human umbilical vein endothelial cells (HUVEC). As to the kind of experiment: Adhesion molecule expression in HUVEC by FACS, serum-free medium. The format is cell-based. Here is the method: HUVEC were incubated with human C-reactive protein similar to Example 2 except in the absence of serum. Cells were detached by incubation with 10 mmol/L EDTA in PBS (without trypsin), washed with PBS buffer and suspended in PBS with 0.1% sodium azide. Cell were then stained with R-Phycoerythrin labeled monoclonal antibodies (Pharmingen) against the adhesion molecules VCAM-1 (CD106) or ICAM-1 (CD54) or with Phycoerythrin labeled isotype IgG as control. For detection of E-selectin, HUVEC were incubated for 6 hours with C-reactive protein and then stained with a FITC labeled monoclonal antibody against E-selectin (RandD Systems) or the appropriate isotype control (Pasceri et al., 2000). R-Phycoerythrin labeled monoclonal antibodies (Pharmingen) against the C-reactive protein receptors FCγRI and FCγRII (Marnell et al., 1995; Bharadwaj et al., 1999) were also used.
(§1) The staining procedure was performed on ice for 30 minutes, followed by washing. The fluorescence intensity of 9000 cells for each sample was quantified by a FACS CaliburTM analyser (Becton Dickinson). All experiments were performed in triplicate.
For orientation: In flow cytometry, cells or beads pass a laser one at a time.

For experiment [2] the test system is unchanged. Put plainly: Adhesion molecule expression in HUVEC by FACS, in the presence of serum. Type of experiment: cell-based. The following applies: 24-hour incubation, HUVEC with human serum.
Experiment [3] relates to HUVEC. As to the kind of experiment: MCP-1 secretion by HUVEC, sandwich ELISA. The format is cell-based, human. Here is the method:
(§2) Experiments were performed in HUVEC, cultured in 12-well plates in basic endothelial cell medium CS-C, with 10 mM HEPES and 15% human serum (Sigma). Culture supernatants were collected 6-24 hours after stimulation with either IL-1β or CRP, at the concentration indicated. Secretion of MCP-1 and RANTES were assessed by sandwich ELISA (Colorimetric Quantikine, by R and D Systems). All determinations were performed in duplicate. Data were expressed as mean±SD of 5-6 separate experiments. Cell viability was assessed by staining with trypan blue.
On the technique in general: ELISA stands for enzyme-linked immunosorbent assay.

Experiment [4] relates to human umbilical vein endothelial cells (HUVEC). As to the kind of experiment: Adhesion molecule expression in HUVEC by FACS, in the presence of serum. The format is cell-based. Here is the method: All experiments were performed on human umbilical vein endothelial cells (HUVEC, from Cascade Biology). HUVEC were grown in M199 medium with endothelial cell growth supplement, heparin and 15% fetal bovine serum or human serum. Cells were used at passage 2 to 4.
HUVEC were incubated with human C-reactive protein at the concentration indicated for 24 hours. Cells were detached by incubation with 10 mmol/L EDTA in PBS (without trypsin), washed with PBS buffer and suspended in PBS with 1% FBS and 0.1% sodium azide. Cell were then stained with R-Phycoerythrin labeled monoclonal antibodies (Pharmingen) against the adhesion molecules VCAM-1 (CD106) or ICAM-1 (CD54) or with Phycoerythrin labeled isotype IgG as control. For detection of E-selectin, HUVEC were incubated for 6 hours with C-reactive protein and then stained with a FITC labeled monoclonal antibody against E-selectin (RandD Systems) or the appropriate isotype control (Pasceri et al., 2000). R-Phycoerythrin labeled monoclonal antibodies (Pharmingen) against the C-reactive protein receptors FCγRI and FCγRII (Marnell et al., 1995; Bharadwaj et al., 1999) were also used.
as §1

For experiment [5], the system named is HUVEC. As to the kind of experiment: RANTES secretion by HUVEC, sandwich ELISA. The format is cell-based, human. Here is the method:
as §2

Where [6] appears, read: CRP 100 μg/mL + test substance 10 μmol/L.
Where [7] appears, read: CRP 100 μg/mL + test substance 100 μmol/L.
Where [8] appears, read: Homo sapiens, HUVEC, CRP 100 μg/mL + test substance 100 μmol/L.
[9] abbreviates: CRP 100 μg/mL + test substance 50 μmol/L.
Setting [10] is: CRP 100 μg/mL + test substance 200 μmol/L.
The mark [11] stands for this setting: CRP 100 μg/mL + test substance 20 μmol/L.
The mark [12] stands for this setting: CRP 100 μg/mL + test substance 1 mmol/L.
The mark [13] stands for this setting: C-reactive protein 10 μg/mL, 24-hour incubation, HUVEC with human serum.

On to `Cc1cccc(Nc2cc(Cl)nc(SCC(=O)O)n2)c1C` [Wy 14649], for which, in the experiment on MCP-1 Induction by CRP (setting [6]), the “% of Maximal Response” value was found to be 101%, the “-Fold Increase in MCP-1 conc.” value is reported as 6.4 ± 2.1 -Fold and the MCP-1 conc. turned out to be 13.9 ± 6.0 ng/mL. In addition, in the experiment with MCP-1 Induction by CRP (setting [7]), the “% of Maximal Response” value was found to be 30%, the “-Fold Increase in MCP-1 conc.” value is on record as 1.9 ± 0.9 -Fold and the MCP-1 conc. came to 4.2 ± 2.2 ng/mL. For the same molecule, in the experiment with MCP-1 Induction by CRP, the “effect on induction of MCP-1 by CRP (in words)” value is “no effect”. The “effect on secretion of MCP-1 induced by CRP (in words)” value with MCP-1 Induction by CRP (test substance 100 μM) is recorded as “completely inhibited”.
With `CCCCC/C=C/C=C1/C(=O)C=C[C@@H]1C/C=C\CCCC(=O)O` [15d-PGJ2, 15-deoxy-^Δ12,14-prostaglandin J2], in the experiment with MCP-1 Induction by CRP (setting [6]), the “% of Maximal Response” value was found to be 24%, the “-Fold Increase in MCP-1 conc.” value is listed as 1.5 ± 0.6 -Fold and the MCP-1 conc. was determined as 3.4 ± 1.6 ng/mL. Besides, the “effect on induction of MCP-1 by CRP (in words)” value in the experiment with MCP-1 Induction by CRP is given as “almost completely abolished”.
Turning to `CC(C)OC(=O)C(C)(C)Oc1ccc(C(=O)c2ccc(Cl)cc2)cc1` [fenofibrate], in the experiment on MCP-1 Induction by CRP (setting [7]), the “-Fold Increase in MCP-1 conc.” value is on record as 0.9 ± 0.2 -Fold and the MCP-1 conc. is 2.1 ± 0.6 ng/mL. Moreover, the MCP-1 secretion, % of maximal CRP-induced response at 100 µM with MCP-1 Induction by CRP (setting [8]) stood at 15%.
Regarding `CC1(COc2ccc(CC3SC(=O)NC3=O)cc2)CCCCC1` (stereo not shown) [ciglitazone], the “-Fold Increase in MCP-1 conc.” value is recorded as 4.8 ± 1.5 -Fold in the experiment on MCP-1 Induction by CRP (setting [9]), 4.1 ± 1.0 -Fold in the experiment on MCP-1 Induction by CRP (setting [7]) and 2.7 ± 0.8 -Fold in the experiment with MCP-1 Induction by CRP (setting [10]). The MCP-1 conc. with MCP-1 Induction by CRP (setting [9]) was found to be 10.2 ± 4.6 ng/mL; with MCP-1 Induction by CRP (setting [7]) it was 8.7 ± 3.4 ng/mL; with MCP-1 Induction by CRP (setting [10]), 5.9 ± 2.5 ng/mL. Moreover, the MCP-1 secretion, % of maximal CRP-induced response at 50 µM in the experiment with MCP-1 Induction by CRP (Homo sapiens, HUVEC, CRP 100 μg/mL + test substance 50 μmol/L) stood at 74%. In addition, the MCP-1 secretion, % of maximal CRP-induced response at 100 µM in the experiment with MCP-1 Induction by CRP (setting [8]) is 65%. In addition, the MCP-1 secretion, % of maximal CRP-induced response at 200 µM in the experiment on MCP-1 Induction by CRP (Homo sapiens, HUVEC, CRP 100 μg/mL + test substance 200 μmol/L) is 42%.
Consider “interleukin-1: Interleukin-1 provided by RandD systems; a well known activator of endothelial cells”, for which the “expression of adhesion molecules” value in experiment [1] (interleukin-1, serum-free medium) is on record as “able to induce adhesion molecules”. Further, the E-selectin expression entry in experiment [2] is given as “no increase”. Further, the “MCP-1 response in absence of serum” value in the experiment on HUVEC [3] (IL-1β, serum-free medium) is recorded as “absence of serum did not change the response”. In the experiment with HUVEC [3] (Interleukin-1β 10 ng/mL, 15% human serum), this molecule had an MCP-1 concentration of 8.6 ± 3.7 ng/mL. Also, the “induction of adhesion molecules expression compared with C-reactive protein 10 μg/mL” value in experiment [4] (interleukin-1 10 ng/mL, same time-intervals (24-hour; 6-hour for E-selectin), HUVEC with human serum) is reported as “similar”. Moreover, the RANTES expression entry in the experiment with HUVEC [5] (Interleukin-1β 10 ng/mL) is given as “did not induce”.
On to `Cc1c(C)c2c(c(C)c1O)CCC(C)(COc1ccc(CC3SC(=O)NC3=O)cc1)O2` (stereo not shown) [troglitazone], for which, in the experiment with MCP-1 Induction by CRP (setting [11]), the “-Fold Increase in MCP-1 conc.” value is 5.2 ± 1.7 -Fold and the MCP-1 conc. is given as 11.4 ± 5.2 ng/mL. The MCP-1 secretion, % of maximal CRP-induced response at 20 µM in the experiment with MCP-1 Induction by CRP (Homo sapiens, HUVEC, CRP 100 μg/mL + test substance 20 μmol/L) came to 83%.
For the molecule `CC(=O)Oc1ccccc1C(=O)O` [aspirin], in the experiment on MCP-1 Induction by CRP (setting [7]), the “-Fold Increase in MCP-1 conc.” value is reported as 6.7 ± 1.9 -Fold and the MCP-1 conc. stood at 14.6 ± 6.7 ng/mL. In the experiment with MCP-1 Induction by CRP (setting [12]), the “-Fold Increase in MCP-1 conc.” value is on record as 6.4 ± 1.8 -Fold and the MCP-1 conc. is on record as 13.7 ± 6.7 ng/mL. Moreover, the MCP-1 secretion, % of maximal CRP-induced response at 100 µM with MCP-1 Induction by CRP (setting [8]) worked out at 104%. Besides, in the experiment with MCP-1 Induction by CRP (Homo sapiens, HUVEC, CRP 100 μg/mL + test substance 1 mmol/L), the MCP-1 secretion, % of maximal CRP-induced response at 1000 µM came to 102%. In addition, the “effect on the effects of C-reactive protein (MCP-1 induction, in words)” value in the experiment with MCP-1 Induction by CRP (high concentration, up to 1 mM) is given as “did not inhibit”.

B1: CRP: Recombinant human C-reactive protein purchased from Biochem; acute phase reactant protein (protein, UniProt P02741 19-224, looked up)
C-reactive protein: QTDMSRKAFVFPKESDTSYVSLKAPLTKPLKAFTVCLHFYTELSSTRGYSIFSYATKRQDNEILIFWSKDIGYSFTVGGSEILFEVPEVTVAPVHICTSWESASGIVEFWVDGKPRVRKSLKKGYTVGAEASIILGQEQDSFGGNFEGSQSLVGDIGNVNMWDFVLSPDEINTIYLGGPFSPNVLNWRALKYEVQGEVFTKPQLWP
For B1, the “expression of adhesion molecules (ICAM-1, VCAM-1, E-selectin)” value in experiment [1] (C-reactive protein 100 μg/mL, 24-hour (6-hour for E-selectin), serum-free medium) is “could not induce; also recorded: did not induce”. Moreover, the E-selectin expression result is “no increase” in experiment [2] and “significant increase” in experiment [4] (C-reactive protein 10 μg/mL, 6-hour incubation, HUVEC with human serum). Also, in the experiment on HUVEC [3] (24-hour incubation, 15% human serum), the “CRP concentration already giving significant induction of MCP-1” value is 5 µg/mL. Besides, the MCP-1 concentration with HUVEC [3] (CRP 10 μg/mL, 24-hour incubation, 15% human serum, baseline 1.1±0.5) came to 2.4 ± 0.9 ng/mL; in the experiment on HUVEC [3] (CRP 100 μg/mL (peak), 24-hour incubation, 15% human serum), 9.7 ± 4.8 ng/mL. Besides, in the experiment with HUVEC [3] (CRP 100 μg/mL, 24-hour, serum-free medium), the MCP-1 concentrations result is recorded as “did not induce a significant increase”. Also, the “fold-increase of MCP-1 secretion” value in the experiment with HUVEC [3] (CRP 100 μg/mL, 24-hour, versus human albumin 100 μg/mL, 15% human serum) is given as 7 fold-increase. Further, the “% of Maximal Response” value with MCP-1 Induction by CRP (CRP 100 μg/mL alone, 24 hours) was determined as 100%. For the same molecule, in the experiment on MCP-1 Induction by CRP (CRP 100 μg/mL alone, 24 hours), the “-Fold Increase in MCP-1 conc.” value is reported as 6.3 ± 1.8 -Fold. Further, the MCP-1 conc. with MCP-1 Induction by CRP (CRP 100 μg/mL alone, 24 hours) was found to be 13.6 ± 5.4 ng/mL. In experiment [4] (setting [13]), the ICAM-1 expression entry was “large increase”. Moreover, the VCAM-1 expression entry is given as “significant increase” in experiment [4] (setting [13]) and “large increase” in experiment [4] (C-reactive protein 10 μg/mL, 24-hour incubation, HUVEC with human serum, listed as recombinant C-reactive protein). Also, the “further increase in adhesion molecules expression on increase of concentration” value in experiment [4] (C-reactive protein up to 100 μg/mL, compared with 10 μg/mL, 4th passage cells, 15% human serum) is on record as “only a modest further increase”. Further, the “further adhesion molecules induction on increase of concentration” value in experiment [4] (C-reactive protein up to 200 μg/mL, compared with 10 μg/mL) is given as “only a modest further adhesion molecules induction”. The “C-reactive protein concentration at which adhesion molecule expression is nearly maximum” value in experiment [4] (dose response, HUVEC with 15% human serum) was found to be 10 µg/mL. Moreover, the “Secretion of RANTES” value in the experiment with HUVEC [5] (C-reactive protein 100 μg/mL, 15% human serum) is “not increased”.
